In paper PMC11162475, “Rule-based omics mining reveals antimicrobial macrocyclic peptides against drug-resistant clinical isolates” (Nature Communications, 2024):
Values after ≈ are worked out from the molar mass of the structure shown.

Legend:
Type in all cases: cell-based
[1] = test system: Enterococcus faecalis OG1RF; assay: microbe, parasite or virus in culture; details: 20 h
Method: (§1) For MIC determination, Staphylococcus aureus ATCC25923, Bacillus subtilis 168, Micrococcus luteus DSM1790, Enterococcus faecalis OG1RF, Enterococcus faecium MCC2763, Escherichia coli DH5α and Pseudomonas aeruginosa PAO1 were used as indicator strains. Nisin and vancomycin were used as positive controls. A dilution series of massatide A, massatide B, vancomycin (16, 8, 4, 2, 1, 0.5, 0.25, 0.125, 0.0625, 0.0313 μg/mL) and sistertide A1, kebanetide A1, kebanetide A2, nisin (64, 32, 16, 8, 4, 2, 1, 0.5, 0.25, 0.125 μg/mL) were prepared in 96-well plate from 1–10th column. The indicator strains were added to the compound-containing well. The indicator strain culture with no antibiotics was prepared in the 11th column. The 12th column was filled with 200 μL empty MHB medium. The 96-well plate was incubated at 37 °C for 20 h (30 °C for M. luteus and B. subtilis). The OD600 was detected on MULTISKAN Sky (Thermo Scientific) and MIC values were determined. The MIC values of clinical isolates were determined by Sichuan Primed Shines Bio-tech Co., Ltd. (China) following similar protocol. Levofloxacin was used as a positive control.

[2] = test system: Bacillus subtilis 168; assay: microbe, parasite or virus in culture
Method: as §1

[3] = test system: Enterococcus faecium MCC2763; assay: microbe, parasite or virus in culture
Method: as §1

[4] = test system: Micrococcus luteus DSM1790; assay: microbe, parasite or virus in culture
Method: as §1

[5] = test system: Staphylococcus aureus ATCC25923; assay: microbe, parasite or virus in culture
Method: as §1

[6] = test system: Micrococcus luteus DSM1790; assay: Kirby-Bauer assay, zone of inhibition (agar well); details: M. luteus DSM1790; 10 μL DMSO stock (3.2 or 1.6 mg/mL) in well of soft LB agar, 30 °C, 20 h
Method: The stock solution of massatide A (1) and B (1a) 3.2 mg/mL were prepared in DMSO. 40 μL overnight culture of Micrococcus luteus DSM1790 was added to 20 mL soft Luria-Bertani agar (1% agar), and then poured into a plate. 10 μL tip was used to make two wells on the plate. 10 μL massatide A (1) or B (1a) solution was added in one of the wells, while in the other well, 10 μL DMSO was added as a negative control. The plates were incubated at 30 °C for 20 h to observe the zone of inhibition. Staphylococcus aureus ATCC25923 was also used to observe the inhibition zone using a similar method. The only difference is incubating at 37 °C. Stock solutions of sistertide A1, kebanetide A1 and A2 were 3.2 mg/mL, 1.6 mg/mL and 1.6 mg/mL, respectively. The method to observe the activity of these compounds individually was the same as that of massatide.

[7] = test system: Escherichia coli DH5α; details: Escherichia coli DH5α; dilution series in 96-well plate, MHB, 37 °C, 20 h, OD600
Method: as §1

[8] = test system: Pseudomonas aeruginosa PAO1; details: Pseudomonas aeruginosa PAO1; dilution series in 96-well plate, MHB, 37 °C, 20 h, OD600
Method: as §1

Molecule | MIC ([1]; OG1RF) [µg/mL] | MIC ([2]; 168, 20 h) [µg/mL] | MIC ([3]; MCC2763, 20 h) [µg/mL] | MIC ([4]; DSM1790, 20 h) [µg/mL] | MIC ([5]; ATCC25923, 20 h) [µg/mL] | inhibitory activity (zone of inhibition) [6] | MIC ([1]; Enterococcus faecalis OG1RF, dilution series in 96-well plate, MHB, 37 °C, OD600) [µg/mL] | MIC ([2]; Bacillus subtilis 168, dilution series in 96-well plate, MHB, 30 °C, 20 h, OD600) [µg/mL] | MIC ([3]; Enterococcus faecium MCC2763, dilution series in 96-well plate, MHB, 37 °C, 20 h, OD600) [µg/mL] | MIC ([4]; Micrococcus luteus DSM1790, dilution series in 96-well plate, MHB, 30 °C, 20 h, OD600) [µg/mL] | MIC ([5]; Staphylococcus aureus ATCC25923, dilution series in 96-well plate, MHB, 37 °C, 20 h, OD600) [µg/mL] | MIC [7] [µg/mL] | MIC [8] [µg/mL]
C=C1NC(=O)C(N(C)C)C(C)SC[C@@H](C(=O)N[C@H](C(=O)N[C@@H](C)C(=O)N[C@H](C)C(=O)N[C@@H](C)C(=O)N/C(=C\C)C(=O)N[C@@H](C)C(=O)N[C@H](C)C(=O)N[C@@H](Cc2ccccc2)C(=O)N[C@H](C(=O)N[C@@H](C)C(=O)N[C@H](C)C(=O)N[C@@H](CCC(N)=O)C(=O)N[C@@H](Cc2ccccc2)C(=O)N[C@H](C)C(=O)N[C@@H](C)C(=O)N[C@@H](CCCCN)C(=O)NC2C(=O)N[C@@H](C(C)C)C(=O)N[C@@H](C)C(=O)NCC(=O)NCC(=O)N/C=C\SC2C)C(C)C)[C@@H](C)CC)NC(=O)[C@H](C)NC(=O)[C@@H]2CCCN2C1=O (some centres unmarked) [kebanetide A2 (5), kebanetide A2] | 16 (≈ 6.72 µM) | 32 to 64 | 32 (≈ 13.4 µM) | 32 (≈ 13.4 µM) | >64 | exhibited growth inhibition |  |  |  |  |  |  | 
kebanetide A1 [Kebanetide A1 (4)] |  |  |  |  |  | exhibited growth inhibition | 16 | 8 | 32 | 8 | 64 | >64 | >64
